Assay [1] has as its target T1, histidine tagged recombinant human full-length Bruton Agammaglobulinemia Tyrosine Kinase (Btk) (Homo sapiens, UniProt Q06187).
T1 construct: histidine tagged recombinant human full-length Bruton Agammaglobulinemia Tyrosine Kinase (Btk); His tag
Put plainly: Btk kinase inhibition assay, Method A (fluorescence polarization, KinEASE FP Fluorescein Green). It is filed as biochemical. Particulars: 10 μM ATP, 250 μM substrate, 60 minutes, Ki calculated from IC50 with Cheng-Prusoff equation. The procedure: Fluorescence polarization-based kinase assays were performed in 384 well-plate format using histidine tagged recombinant human full-length Bruton Agammaglobulinemia Tyrosine Kinase (Btk), and a modified protocol of the KinEASE™ FP Fluorescein Green Assay supplied from Millipore®. Kinase reaction were performed at room temperature for 60 minutes, in presence of 250 μM substrate, 10 μM ATP, and variable test article concentrations. The reaction was stopped with EDTA/kinease detection reagents. Phosphorylation of the substrate peptide was detected by fluorescence polarization, measured with a Tecan 500 instrument. From the dose-response curve obtained, the IC50 was calculated using Graph Pad Prisms®, using a non linear fit curve. The Km for ATP on each enzyme was experimentally determined and the Ki values calculated using the Cheng-Prusoff equation (see: Cheng Y, Prusoff W H. (1973) Relationship between the inhibition constant (K1), and the concentration of inhibitor which causes 50% inhibition (I50) of an enzymatic reaction”. Biochem Pharmacol 22 (23): 3099-108).

Another assay has as its system splenocytes. Put plainly: Splenic cell proliferation assay (anti-IgM stimulated, Cell Titer-Glo). It is filed as cell-based. Conditions: Splenocyte; CD1 mouse splenocytes, 2.5 ug/ml anti-IgM F(ab')2 for 72 h, 1 h compound pre-treatment; read-out: EC50 (nM), Inhibition of splenic cell proliferation. The procedure:
Proliferation of splenocytes in response to anti-IgM can be blocked by inhibition of Btk. Splenocytes were obtained from 6 week old male CD1 mice (Charles River Laboratories Inc.). Mouse spleens were manually disrupted in PBS and filtered using a 70 um cell strainer followed by ammonium chloride red blood cell lysis. Cells were washed, resuspended in Splenocyte Medium (HyClone RPMI supplemented with 10% heat-inactivated FBS, 0.5× non-essential amino acids, 10 mM HEPES, 50 uM beta mercaptoethanol), and incubated at 37° C., 5% CO2 for 2 h, to remove adherent cells. Suspension cells were seeded in 96 well plates, at 50,000 cells per well, and incubated at 37° C., 5% CO2 for 1 h. Splenocytes were pre-treated in triplicate with 10,000 nM curves of Formula I, compounds for 1 h, followed by stimulation of cell proliferation with 2.5 ug/ml anti-IgM F(ab′)2 (Jackson Immuno Research) for 72 h. Cell proliferation was measured by Cell Titer-Glo Luminescent Assay (Promega). EC50 values (50% proliferation in the presence of compound, as compared to vehicle treated controls) were calculated from dose response compound curves using GraphPad Prism Software.

In a further assay the target is T2, human BTK kinase (hBTK) (Homo sapiens, UniProt Q06187).
T2 construct: purchased Eurofins Pharma Discovery Services UK Limited
T2 sequence (Q06187 whole entry): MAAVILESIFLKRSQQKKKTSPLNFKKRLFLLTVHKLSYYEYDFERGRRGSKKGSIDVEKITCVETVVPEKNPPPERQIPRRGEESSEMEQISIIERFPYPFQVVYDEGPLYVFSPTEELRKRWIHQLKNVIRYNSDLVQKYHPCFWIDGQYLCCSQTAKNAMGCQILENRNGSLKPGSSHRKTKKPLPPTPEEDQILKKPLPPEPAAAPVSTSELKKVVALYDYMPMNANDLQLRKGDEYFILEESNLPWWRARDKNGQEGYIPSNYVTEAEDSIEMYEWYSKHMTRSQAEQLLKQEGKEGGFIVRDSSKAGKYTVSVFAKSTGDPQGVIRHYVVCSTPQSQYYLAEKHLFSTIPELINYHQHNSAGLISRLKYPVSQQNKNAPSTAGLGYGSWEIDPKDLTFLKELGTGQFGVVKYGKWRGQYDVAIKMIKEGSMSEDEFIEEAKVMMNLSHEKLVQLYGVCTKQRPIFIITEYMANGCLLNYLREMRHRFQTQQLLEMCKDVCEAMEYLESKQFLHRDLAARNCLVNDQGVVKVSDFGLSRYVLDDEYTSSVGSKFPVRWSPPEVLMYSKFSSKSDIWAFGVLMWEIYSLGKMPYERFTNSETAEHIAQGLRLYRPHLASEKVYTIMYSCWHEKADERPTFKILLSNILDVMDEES
The assay can be described thus: Btk kinase inhibition assay, Method B (KinaseProfiler radiometric protein kinase assay, Eurofins). Type of assay: biochemical. Particulars: [γ-33P-ATP], 250 μM substrate, 40 minutes. The procedure: In vitro potency of selected compound was defined against human BTK kinase (hBTK) using KinaseProfiler radiometric protein kinase assays performed at Eurofins Pharma Discovery Services UK Limited.
hBTK kinase is diluted in buffer and all compounds were prepared to 50× final assay concentration in 100% DMSO. This working stock of the compound was added to the assay well as the first component in the reaction, followed by the remaining components as detailed in the assay protocol listed above. The reaction was initiated by the addition of the MgATP mix. The kinase reaction was performed at room temperature for 40 minutes, in presence of 250 μM substrate, 10 mM MgAcetate, [γ-33P-ATP] (specific activity approx. 500 cpm/pmol, concentration as required) and variable test article concentrations. The ATP concentrations in the assays were with 15 μM of the apparent. The reaction was stopped by the addition of 3% phosphoric acid solution. 10 μL of the reaction is then spotted onto a P30 filtermat and washed three times for 5 minutes in 75 mM phosphoric acid and once in methanol, prior to drying, and scintillation counting. […]

T1 sequence (Q06187 whole entry): as above

As for `Cc1ccc(COc2cc(F)cc(Oc3ccc(-n4cc(C(C)C)c5ncnc(N)c54)cc3)c2)cn1` [Compound 1], the Ki (as a rule, the equilibrium dissociation constant of an inhibitor or competing ligand from its target) in assay [1] was < 100 nM. Besides, the EC50 with splenocytes was < 100 nM.

In the case of `Cc1ncc(COc2cc(F)cc(Oc3ccc(-n4cc(C(C)C)c5ncnc(N)c54)cc3)c2)s1` [Compound 2], the inhibitory constant (Ki) in assay [1] is < 100 nM. Also, the EC50 with splenocytes is < 100 nM.

On to `Cc1ncc(COc2cc(F)cc(Oc3ccc(-n4cc(C5CCCC5)c5ncnc(N)c54)cc3)c2)s1` [Compound 3], for which the EC50 in the assay with splenocytes is < 100 nM.

Regarding `Cc1ccc(COc2cc(F)cc(Oc3ccc(-n4cc(C5CCCC5)c5ncnc(N)c54)cc3)c2)cn1` [Compound 4], the EC50 in the assay on splenocytes is < 100 nM.

Take `Cc1ccc(COc2cc(F)cc(Oc3ccc(-n4cc(C5CCOCC5)c5ncnc(N)c54)cc3)c2)cn1` [Compound 5]: the Ki in assay [1] was < 100 nM. Further, the EC50 with splenocytes is < 100 nM.

In the case of `Cc1ncc(COc2cc(F)cc(Oc3ccc(-n4cc(C5CCOCC5)c5ncnc(N)c54)cc3)c2)s1` [Compound 6], in assay [1], the inhibitory constant (Ki) is < 100 nM. The EC50 in the assay on splenocytes is < 100 nM.

As to `Cc1ncc(COc2cc(F)cc(Oc3ccc(-n4cc(C5CCOCC5)c5ncnc(N)c54)cc3)c2)cn1` [Compound 7], the inhibitory constant (Ki) in assay [1] was < 100 nM. The EC50 in the assay on splenocytes is < 100 nM.

On to `Cc1ncc(COc2cc(F)cc(Oc3ccc(-n4cc(C5CCCC5)c5ncnc(N)c54)cc3)c2)cn1` [Compound 8], for which, in the assay on splenocytes, the EC50 is < 100 nM.

In the case of `Cc1ncc(COc2cc(F)cc(Oc3ccc(-n4cc(C(C)C)c5ncnc(N)c54)cc3)c2)cn1` [Compound 9], the Ki in assay [1] was < 100 nM. The EC50 in the assay on splenocytes is < 100 nM.

As for `Cc1ncc(COc2cc(F)cc(Oc3ccc(-n4cc(C5CC(CO)C5)c5ncnc(N)c54)cc3)c2)cn1` (stereo not drawn) [Compound 10], in the assay with splenocytes, the EC50 was < 100 nM.

As to `Cc1ncc(COc2cc(F)cc(Oc3ccc(-n4cc([C@H]5C[C@@H](O)C5)c5ncnc(N)c54)cc3)c2)cn1` [Compound 11], the EC50 on human BTK kinase (hBTK) and in the assay with splenocytes was < 100 nM throughout.

The values above are taken from patent US20160289236A1, “Protein Kinase Inhibitors” (PHARMASCIENCE INC., priority 2013, published 2016).
